Test results published in patent US20230085307A1, “PYRIDAZINONE COMPOUND AND HERBICIDE” (NISSAN CHEMICAL CORPORATION, priority 2019, published 2023).

Columns and labels:
barnyard grass [1] = assay: Test Example 3: herbicidal effect by foliage application, Wagner pot (Table 18, symbol H); format: in vivo, barnyard grass (Echinochloa crus-galli)
Summary of the method: (§1)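 Plants were sown in alluvial soil held under 0.1–0.5 cm standing water and grown 14 days in a greenhouse at 25–30 °C. An emulsifiable formulation, water-diluted to the set dose, was then sprayed onto the foliage, and effects were scored three weeks later using previously defined criteria.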

Chinese sprangletop = assay: Test Example 3: herbicidal effect by foliage application, Wagner pot (Table 18, symbol D); format: in vivo, chinese sprangletop (Leptochloa chinensis)
Summary of the method: as §1

rice flat sedge = assay: Test Example 3: herbicidal effect by foliage application, Wagner pot (Table 18, symbol E); format: in vivo, rice flat sedge (Cyperus iria)
Summary of the method: as §1

southern crabgrass [2] = assay: Test Example 4: herbicidal effect by soil treatment (Table 19, symbol F); format: in vivo, southern crabgrass (Digitaria ciliaris); conditions: amount of applied herbicide 320 g/ha
Summary of the method: (§2)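 Scoring uses the grading scale of an earlier test, three weeks post-application. Treatment consists of spraying a diluted emulsion formulation across the surface of sterilized diluvial soil in which seeds are buried near 1.5 cm deep; boxes are kept in a greenhouse between 25° C. and 30° C.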

green foxtail [3] = assay: Test Example 4: herbicidal effect by soil treatment (Table 19, symbol G); format: in vivo, green foxtail (Setaria viridis); conditions: amount of applied herbicide 320 g/ha
Summary of the method: as §2

barnyard grass [4] = assay: Test Example 4: herbicidal effect by soil treatment (Table 19, symbol H); format: in vivo, barnyard grass (Echinochloa crus-galli); conditions: amount of applied herbicide 320 g/ha
Summary of the method: as §2

wild oat [5] = assay: Test Example 4: herbicidal effect by soil treatment (Table 19, symbol I); format: in vivo, wild oat (Avena fatua); conditions: amount of applied herbicide 320 g/ha
Summary of the method: as §2

blackgrass [6] = assay: Test Example 4: herbicidal effect by soil treatment (Table 19, symbol J); format: in vivo, blackgrass (Alopecurus myosuroides); conditions: amount of applied herbicide 320 g/ha
Summary of the method: as §2

Italian ryegrass [7] = assay: Test Example 4: herbicidal effect by soil treatment (Table 19, symbol K); format: in vivo, Italian ryegrass (Lolium multiflorum); conditions: amount of applied herbicide 320 g/ha
Summary of the method: as §2

windgrass [8] = assay: Test Example 4: herbicidal effect by soil treatment (Table 19, symbol L); format: in vivo, windgrass (Apera spica-venti); conditions: amount of applied herbicide 320 g/ha
Summary of the method: as §2

velvetleaf [9] = assay: Test Example 4: herbicidal effect by soil treatment (Table 19, symbol M); format: in vivo, velvetleaf (Abutilon theophrasti); conditions: amount of applied herbicide 320 g/ha
Summary of the method: as §2

redroot pigweed [10] = assay: Test Example 4: herbicidal effect by soil treatment (Table 19, symbol N); format: in vivo, redroot pigweed (Amaranthus retroflexus); conditions: amount of applied herbicide 320 g/ha
Summary of the method: as §2

lambsquarters [11] = assay: Test Example 4: herbicidal effect by soil treatment (Table 19, symbol O); format: in vivo, lambsquarters (Chenopodium album); conditions: amount of applied herbicide 320 g/ha
Summary of the method: as §2

chickweed [12] = assay: Test Example 4: herbicidal effect by soil treatment (Table 19, symbol P); format: in vivo, common chickweed (Stellaria media); conditions: amount of applied herbicide 320 g/ha
Summary of the method: as §2

persian speedwell [13] = assay: Test Example 4: herbicidal effect by soil treatment (Table 19, symbol R); format: in vivo, Persian speedwell (Veronica persica); conditions: amount of applied herbicide 320 g/ha
Summary of the method: as §2

southern crabgrass [14] = assay: Test Example 5: herbicidal effect by foliage application, plastic box (Table 20, symbol F); format: in vivo, southern crabgrass (Digitaria ciliaris); conditions: foliage application
Summary of the method: (§3)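 Post-emergence foliar test in sterilized diluvial soil. Compound applied as water-diluted emulsion at a predetermined rate to 14-day-old plants; evaluation at three weeks.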

green foxtail [15] = assay: Test Example 5: herbicidal effect by foliage application, plastic box (Table 20, symbol G); format: in vivo, green foxtail (Setaria viridis); conditions: foliage application
Summary of the method: as §3

barnyard grass [16] = assay: Test Example 5: herbicidal effect by foliage application, plastic box (Table 20, symbol H); format: in vivo, barnyard grass (Echinochloa crus-galli); conditions: foliage application
Summary of the method: as §3

wild oat [17] = assay: Test Example 5: herbicidal effect by foliage application, plastic box (Table 20, symbol I); format: in vivo, wild oat (Avena fatua); conditions: foliage application
Summary of the method: as §3

blackgrass [18] = assay: Test Example 5: herbicidal effect by foliage application, plastic box (Table 20, symbol J); format: in vivo, blackgrass (Alopecurus myosuroides); conditions: foliage application
Summary of the method: as §3

Italian ryegrass [19] = assay: Test Example 5: herbicidal effect by foliage application, plastic box (Table 20, symbol K); format: in vivo, Italian ryegrass (Lolium multiflorum); conditions: foliage application
Summary of the method: as §3

windgrass [20] = assay: Test Example 5: herbicidal effect by foliage application, plastic box (Table 20, symbol L); format: in vivo, windgrass (Apera spica-venti); conditions: foliage application
Summary of the method: as §3

velvetleaf [21] = assay: Test Example 5: herbicidal effect by foliage application, plastic box (Table 20, symbol M); format: in vivo, velvetleaf (Abutilon theophrasti); conditions: foliage application
Summary of the method: as §3

redroot pigweed [22] = assay: Test Example 5: herbicidal effect by foliage application, plastic box (Table 20, symbol N); format: in vivo, redroot pigweed (Amaranthus retroflexus); conditions: foliage application
Summary of the method: as §3

lambsquarters [23] = assay: Test Example 5: herbicidal effect by foliage application, plastic box (Table 20, symbol O); format: in vivo, lambsquarters (Chenopodium album); conditions: foliage application
Summary of the method: as §3

chickweed [24] = assay: Test Example 5: herbicidal effect by foliage application, plastic box (Table 20, symbol P); format: in vivo, common chickweed (Stellaria media); conditions: foliage application
Summary of the method: as §3

persian speedwell [25] = assay: Test Example 5: herbicidal effect by foliage application, plastic box (Table 20, symbol R); format: in vivo, Persian speedwell (Veronica persica); conditions: foliage application
Summary of the method: as §3

[26] = amount of applied herbicide 320 g/ha
[27] = AAH 320 g/ha, evaluated three weeks after application
[28] = 320 g/ha, three weeks after application

In the case of `CCCC(=O)Oc1c(C)nn(C)c(=O)c1-c1c(-c2ccc(F)cc2F)sc2ccc(F)cc12` [2-343], the “herbicidal effect on H: barnyard grass” value (barnyard grass [1]; [26]) was 5 (Herbicidal rate of 90% or more (almost completely withered)), the “herbicidal effect on D: Chinese sprangletop” value (Chinese sprangletop; [26]) was 5 (Herbicidal rate of 90% or more (almost completely withered)) and the “herbicidal effect on E: rice flat sedge” value (rice flat sedge; [26]) was 4 (Herbicidal rate of 70% or more and less than 90%). The “herbicidal effect on F: southern crabgrass” value (southern crabgrass [2]) was 3 (Herbicidal rate of 40% or more and less than 70%), the “herbicidal effect on G: green foxtail” value (green foxtail [3]) was 4 (Herbicidal rate of 70% or more and less than 90%) and the “herbicidal effect on H: barnyard grass” value (barnyard grass [4]) was 3 (Herbicidal rate of 40% or more and less than 70%). The “herbicidal effect on I: wild oat” value (wild oat [5]) was 2 (Herbicidal rate of 20% or more and less than 40%), the “herbicidal effect on J: blackgrass” value (blackgrass [6]) was 2 (Herbicidal rate of 20% or more and less than 40%) and the “herbicidal effect on K: Italian ryegrass” value (Italian ryegrass [7]) was 5 (Herbicidal rate of 90% or more (almost completely withered)). The “herbicidal effect on L: windgrass” value (windgrass [8]) was 3 (Herbicidal rate of 40% or more and less than 70%), the “herbicidal effect on M: velvetleaf” value (velvetleaf [9]) was 3 (Herbicidal rate of 40% or more and less than 70%) and the “herbicidal effect on N: redroot pigweed” value (redroot pigweed [10]) was 3 (Herbicidal rate of 40% or more and less than 70%). For the same compound, the “herbicidal effect on O: lambsquarters” value (lambsquarters [11]) was 2 (Herbicidal rate of 20% or more and less than 40%), the “herbicidal effect on P: chickweed” value (chickweed [12]) was 3 (Herbicidal rate of 40% or more and less than 70%) and the “herbicidal effect on R: persian speedwell” value (persian speedwell [13]) was 5 (Herbicidal rate of 90% or more (almost completely withered)). The “F: southern crabgrass, herbicidal effect (criteria 0-5)” value (southern crabgrass [14]; [27]) was 5 (Herbicidal rate of 90% or more (almost completely withered)), the “G: green foxtail, herbicidal effect (criteria 0-5)” value (green foxtail [15]; [27]) was 5 (Herbicidal rate of 90% or more (almost completely withered)) and the “H: barnyard grass, herbicidal effect (criteria 0-5)” value (barnyard grass [16]; [27]) was 3 (Herbicidal rate of 40% or more and less than 70%). For the same compound, the “I: wild oat, herbicidal effect (criteria 0-5)” value (wild oat [17]; [27]) was 3 (Herbicidal rate of 40% or more and less than 70%), the “J: blackgrass, herbicidal effect (criteria 0-5)” value (blackgrass [18]; [27]) was 4 (Herbicidal rate of 70% or more and less than 90%) and the “K: Italian ryegrass, herbicidal effect (criteria 0-5)” value (Italian ryegrass [19]; [27]) was 5 (Herbicidal rate of 90% or more (almost completely withered)). For the same compound, the “L: windgrass, herbicidal effect (criteria 0-5)” value (windgrass [20]; [27]) was 5 (Herbicidal rate of 90% or more (almost completely withered)), the “M: velvetleaf, herbicidal effect (criteria 0-5)” value (velvetleaf [21]; [27]) was 5 (Herbicidal rate of 90% or more (almost completely withered)) and the “N: redroot pigweed, herbicidal effect (criteria 0-5)” value (redroot pigweed [22]; [27]) was 5 (Herbicidal rate of 90% or more (almost completely withered)). The “O: lambsquarters, herbicidal effect (criteria 0-5)” value (lambsquarters [23]; [27]) was 4 (Herbicidal rate of 70% or more and less than 90%), the “P: chickweed, herbicidal effect (criteria 0-5)” value (chickweed [24]; [27]) was 5 (Herbicidal rate of 90% or more (almost completely withered)) and the “R: persian speedwell, herbicidal effect (criteria 0-5)” value (persian speedwell [25]; [27]) was 5 (Herbicidal rate of 90% or more (almost completely withered)).

With `CCOc1ccc(-c2sc3ccccc3c2-c2c(O)c(C)nn(C)c2=O)cn1` [1-076] the “herbicidal effect on H (barnyard grass), rating 0-5” value (barnyard grass [1]; 320 g/ha) was 1 (Herbicidal rate of 5% or more and less than 20%), the “herbicidal effect on D (Chinese sprangletop), rating 0-5” value (Chinese sprangletop; 320 g/ha) was 0 (Herbicidal rate of 5% or less (almost no effect)) and the “herbicidal effect on E (rice flat sedge), rating 0-5” value (rice flat sedge; 320 g/ha) was 5 (Herbicidal rate of 90% or more (almost completely withered)). The “herbicidal effect rating, F: southern crabgrass” value (southern crabgrass [2]) was 0 (Herbicidal rate of 5% or less (almost no effect)), the “herbicidal effect rating, G: green foxtail” value (green foxtail [3]) was 1 (Herbicidal rate of 5% or more and less than 20%) and the “herbicidal effect rating, H: barnyard grass” value (barnyard grass [4]) was 0 (Herbicidal rate of 5% or less (almost no effect)). For the same compound, the “herbicidal effect rating, I: wild oat” value (wild oat [5]) was 0 (Herbicidal rate of 5% or less (almost no effect)), the “herbicidal effect rating, J: blackgrass” value (blackgrass [6]) was 0 (Herbicidal rate of 5% or less (almost no effect)) and the “herbicidal effect rating, K: Italian ryegrass” value (Italian ryegrass [7]) was 0 (Herbicidal rate of 5% or less (almost no effect)). For the same compound, the “herbicidal effect rating, L: windgrass” value (windgrass [8]) was 0 (Herbicidal rate of 5% or less (almost no effect)), the “herbicidal effect rating, M: velvetleaf” value (velvetleaf [9]) was 0 (Herbicidal rate of 5% or less (almost no effect)) and the “herbicidal effect rating, N: redroot pigweed” value (redroot pigweed [10]) was 0 (Herbicidal rate of 5% or less (almost no effect)). For the same compound, the “herbicidal effect rating, O: lambsquarters” value (lambsquarters [11]) was 0 (Herbicidal rate of 5% or less (almost no effect)), the “herbicidal effect rating, P: chickweed” value (chickweed [12]) was 5 (Herbicidal rate of 90% or more (almost completely withered)) and the “herbicidal effect rating, R: persian speedwell” value (persian speedwell [13]) was 5 (Herbicidal rate of 90% or more (almost completely withered)). For the same compound, the “herbicidal effect grade, F: southern crabgrass” value (southern crabgrass [14]; [28]) was 0 (Herbicidal rate of 5% or less (almost no effect)), the “herbicidal effect grade, G: green foxtail” value (green foxtail [15]; [28]) was 0 (Herbicidal rate of 5% or less (almost no effect)) and the “herbicidal effect grade, H: barnyard grass” value (barnyard grass [16]; [28]) was 0 (Herbicidal rate of 5% or less (almost no effect)). The “herbicidal effect grade, I: wild oat” value (wild oat [17]; [28]) was 0 (Herbicidal rate of 5% or less (almost no effect)), the “herbicidal effect grade, J: blackgrass” value (blackgrass [18]; [28]) was 0 (Herbicidal rate of 5% or less (almost no effect)) and the “herbicidal effect grade, K: Italian ryegrass” value (Italian ryegrass [19]; [28]) was 1 (Herbicidal rate of 5% or more and less than 20%). For the same compound, the “herbicidal effect grade, L: windgrass” value (windgrass [20]; [28]) was 0 (Herbicidal rate of 5% or less (almost no effect)), the “herbicidal effect grade, M: velvetleaf” value (velvetleaf [21]; [28]) was 3 (Herbicidal rate of 40% or more and less than 70%) and the “herbicidal effect grade, N: redroot pigweed” value (redroot pigweed [22]; [28]) was 2 (Herbicidal rate of 20% or more and less than 40%). The “herbicidal effect grade, O: lambsquarters” value (lambsquarters [23]; [28]) was 1 (Herbicidal rate of 5% or more and less than 20%), the “herbicidal effect grade, P: chickweed” value (chickweed [24]; [28]) was 5 (Herbicidal rate of 90% or more (almost completely withered)) and the “herbicidal effect grade, R: persian speedwell” value (persian speedwell [25]; [28]) was 5 (Herbicidal rate of 90% or more (almost completely withered)).
